Data on two molecules can be found in PMC2483479 (Acta Crystallographica Section D: Biological Crystallography, 2007).

Data set [1] concerns the target T1, E. coli KAS I (Escherichia coli, UniProt P0A953).
T1 sequence (P0A953 1-406): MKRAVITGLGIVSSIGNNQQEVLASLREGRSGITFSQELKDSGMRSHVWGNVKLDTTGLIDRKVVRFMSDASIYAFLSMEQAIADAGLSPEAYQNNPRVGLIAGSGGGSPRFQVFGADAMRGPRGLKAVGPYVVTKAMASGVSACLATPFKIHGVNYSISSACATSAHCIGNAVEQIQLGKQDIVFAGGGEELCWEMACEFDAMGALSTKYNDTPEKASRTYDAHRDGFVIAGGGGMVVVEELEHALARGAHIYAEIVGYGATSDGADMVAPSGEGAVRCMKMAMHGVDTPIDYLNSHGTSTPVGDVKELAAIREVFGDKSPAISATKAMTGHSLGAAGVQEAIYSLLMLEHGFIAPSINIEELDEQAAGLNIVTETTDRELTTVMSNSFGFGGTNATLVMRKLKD
Description: X-ray crystal structure. The data set is classed as binding. To be noted: 0.3 mM thiolactomycin, 2.3 M ammonium sulfate, 0.1 M Tris-HCl pH 7.5, 3% DMSO; active site.

Data set [2] deals with the molecule itself. Description: crystal structure.

Regarding `C=C/C(C)=C/[C@@]1(C)SC(=O)C(C)=C1O` [thiolactomycin], in data set [1], the “X-ray crystal structure (crystal soaking)” value is given as “clearly confirmed binding of thiolactomycin at the active site”.

B1: Escherichia coli β-ketoacyl-ACP synthase I (KAS I) (enzyme)
chain: T1 sequence (P0A953 1-406)
With B1, the binding result in data set [2] is on record as “binds”.
